# Source: article PMC9774446, “Antifungal and Anti-Inflammatory Activities of PS1-2 Peptide against Fluconazole-Resistant Candida albicans” (Antibiotics, 2022)
# Like-named read-outs stand apart in the source and are kept apart here. No end group written: not given here.
# What was measured:
# [1] = tested on: RAW 264.7 cells stimulated with C. albicans CCARM 14007; experiment: Anti-inflammatory assay in co-culture of RAW 264.7 and C. albicans; type: cell-based, murine; details: fluconazole 128 µM or PS1-2 32 µM, 24 h
# Method: RAW 264.7 cells were cultured in DMEM supplemented with 10% FBS, 1% penicillin/streptomycin, and GlutaMax at 5% CO2 at 37 °C. The RAW 264.7 cells (2 × 10^5 cells/mL) suspended with RPMI-1640 medium were seeded into 12-well plates and incubated for 24 h. […] After 24 h incubation, cells were washed and harvested in PBS. A total of 1000 µL of blocking solution (5% bovine serum albumin with PBS) was added to each sample, incubated at 25 °C for 30 min, removed by centrifugation at 1000× g, and then incubated with the primary antibody (anti-TLR2, or anti-TNF-α; Abcam, Cambridge, UK, 1:200 dilution) for 1 h. The cells were washed with PBS and incubated with a secondary antibody (fluorescein isothiocyanate-conjugated goat anti-mouse IgG, 1:500 dilution; Santa Cruz Biotechnology) for 1 h. Cells expressing TLR2 were measured using an Attune NxT acoustic focusing cytometer. TNF-α expression was visualized using a confocal laser-scanning microscope (CLSM, A1R HD 25, Nikon, Tokyo, Japan).
# C. albicans KCTC 7270 = experiment: Drug-resistance assay (MFC over six passages); type: cell-based; details: Candida albicans
# Method: To investigate the induction of drug resistance, C. albicans KCTC 7270 cells were prepared as for antifungal assay described above, at concentrations ranging from 1 to 128 μM. After 24 h incubation, MFCs were determined by the above method, and the surviving cells at half MFCs of each sample were treated with the diluted samples, repeating the process six times.
# [2] = tested on: C. albicans CCARM 14007-infected mouse lung; type: in vivo, BALB/c mice
# Text: Animal study was approved by the Institutional Animal Care and Use Committee (IACUC) in Sunchon National University, South Korea (SCNU IACUC-2019-10). […] The mice anesthetized by inhalation of isoflurane (5%: induction, 2%: maintenance) in pure oxygen were intratracheally instilled with C. albicans cells. One hour after exposure, each peptide sample was intratracheally administered at the indicated dose, and the mice were monitored for signs of morbidity for 6 days. The lungs of mice euthanized by CO2 inhalation were excised and fixed in 4% paraformaldehyde. The fixed tissues were dehydrated using a series of ethanol solutions (50–100%) and embedded in paraffin. Paraffin-embedded tissues were sectioned at a thickness of 5 µm (Leica microtome, Deerfield, IL, USA), and the histopathology of the lung tissues was performed using alcian blue without/with eosin, and hematoxylin and eosin (H&E) staining.
# TNF-α and NO production levels in blood collected from mouse hearts were determined using mouse anti-TNF-α microplate ELISA kit (R&D Systems, Minneapolis, MN, USA) and Griess reagent kit (Invitrogen, Carlsbad, CA, USA), respectively, followed by the manufacturer’s instructions.
# [3] = tested on: Candida albicans CCARM 14007 (fluconazole-resistant strain); experiment: microbe, parasite or virus in culture; type: cell-based
# Text: […] The lowest drug concentration at which no more than one colony was visible on the agar plate, was defined as a minimum fungicidal concentration (MFC).
# [4] = cited from earlier work
# Method: Alterations in the killing kinetic pattern under low salt (SP) and high salt (PBS) conditions can predict the interaction and mode of action of peptides on yeast. Because propidium (PI) dye can stain the live cells only temporarily, it will be released ... || To investigate the proteolytic stability of the peptides, the peptide solutions were pre-treated with trypsin for 40 min and added to C. albicans cells. After 24 h of incubation, cells were spread on agar plates (Figure 4).
# C. albicans CCARM 14007 = details: CCARM 14007, pH 7.2
# Method: C. albicans CCARM 14007 cells grown to the mid-log phase at 28 °C were suspended in 10 mM sodium phosphate (pH 7.2) buffer or PBS (pH 7.2) buffer with 10% YPD media at a density of 5 × 10^5 cells/mL. […] The cells were analyzed by fluorescence-activated cell sorting (FACS) system (Attune NxT acoustic focusing cytometer).
compound,measurement,setting,value
"OC(Cn1cncn1)(Cn1cncn1)c1ccc(F)cc1F [Fluconazole, fluconazole]",TNF-α expression (in words),[1]; CLSM,Overexpression of TNF-α
same,macrophage morphology (in words),[1]; with C. albicans,Lamellipodia extension and spreading of cells
same,MFC,"C. albicans KCTC 7270; KCTC7270, read-out: MFC after six passages, 28 °C, surviving cells at half MFC re-treated each passage",2050 µM
same,MFC,"C. albicans KCTC 7270; KCTC7270, read-out: MFC after six passages, 37 °C, surviving cells at half MFC re-treated each passage",4100 µM
same,MFC,"C. albicans KCTC 7270; KCTC7270, read-out: MFC at first passage, 28 °C, drug-sensitive C. albicans KCTC 7270",128 µM
same,MFC,"C. albicans KCTC 7270; KCTC7270, read-out: MFC at first passage, 37 °C, drug-sensitive C. albicans KCTC 7270",128 µM
same,inhibition of TNF-α secretion in whole blood serum,"[2]; C. albicans-infected mice, 2 mg/kg intratracheal 1 h after infection, 6 days, ELISA",approximately 65%
same,NO production in whole blood serum (in words),"[2]; C. albicans-infected mice, 2 mg/kg intratracheal 1 h after infection, 6 days, Griess reagent",did not inhibit NO production
same,lung histology of infected mice (in words),"[2]; C. albicans-infected mice, 2 mg/kg intratracheal, H&E and alcian blue staining",an increase in the release of mucins
same,MFC,"[3]; 28 °C, 6 mM CaCl2 (pH 5.5), 24 h",>128 µM
same,MFC,"[3]; 28 °C, 6 mM MgCl2 (pH 5.5), 24 h",>128 µM
same,MFC,"[3]; 28 °C, 24 mM KCl (pH 5.5), 24 h",>128 µM
same,MFC,"[3]; 28 °C, pH 5.5, 10 mM sodium phosphate buffer containing 10% media, 24 h",>128 µM
same,MFC,"[3]; 28 °C, pH 6.0, 10 mM sodium phosphate buffer containing 10% media, 24 h",>128 µM
same,MFC,"[3]; 28 °C, pH 7.2, 10 mM sodium phosphate buffer containing 10% media, 24 h",>128 µM
same,MFC,"[3]; 37 °C, 6 mM CaCl2 (pH 5.5), 24 h",>128 µM
same,MFC,"[3]; 37 °C, 6 mM MgCl2 (pH 5.5), 24 h",>128 µM
same,MFC,"[3]; 37 °C, 24 mM KCl (pH 5.5), 24 h",>128 µM
same,MFC,"[3]; 37 °C, 150 mM NaCl (pH 5.5), 24 h",>128 µM
same,MFC,"[3]; 37 °C, pH 5.5, 10 mM sodium phosphate buffer containing 10% media, 24 h",>128 µM
same,MFC,"[3]; Candida albicans, CCARM14007, 24 h, pH 5.5",> 128 µM
same,MFC,"[3]; Candida albicans, CCARM14007, 24 h, pH 6",> 128 µM
same,MFC,"[3]; Candida albicans, CCARM14007, 24 h, pH 7.2",> 128 µM
KWLKKWLKKWLK-NH2 [PS1-6],toxicity / cytotoxicity (in words),[4],significant toxicity
same,MFC,"[3]; CCARM 14007, 24 h, pH 6",16 µM
same,MFC,"[3]; CCARM 14007, 24 h, pH 7.2",16 µM
KWYKKWYKKWYK-NH2 [PS1-2],toxicity / cytotoxicity (in words),[4],significantly lower than that of PS1-6
same,lung histology of non-infected mice (in words),"[2]; mouse, in vivo, 2 mg/kg",did not induce inflammation
same,MFC,"[3]; CCARM 14007, 24 h, pH 6",32 µM
same,MFC,"[3]; CCARM 14007, 24 h, pH 7.2",32 µM
same,cells killed (PI-positive cells),C. albicans CCARM 14007,87%
RWYRRWYRRWYR-NH2 [PS1-5],MFC,"[3]; CCARM 14007, 24 h, pH 6",16 µM
same,MFC,"[3]; CCARM 14007, 24 h, pH 7.2",32 µM
